Patent publication US8273769B2, “Phenoxy acetic acid derivatives” (Merck Serono SA, priority 2009, dated 2012)

Target: T1, CRTH2 (Homo sapiens, UniProt Q9Y5Y4)
T1 sequence (Q9Y5Y4 1-395): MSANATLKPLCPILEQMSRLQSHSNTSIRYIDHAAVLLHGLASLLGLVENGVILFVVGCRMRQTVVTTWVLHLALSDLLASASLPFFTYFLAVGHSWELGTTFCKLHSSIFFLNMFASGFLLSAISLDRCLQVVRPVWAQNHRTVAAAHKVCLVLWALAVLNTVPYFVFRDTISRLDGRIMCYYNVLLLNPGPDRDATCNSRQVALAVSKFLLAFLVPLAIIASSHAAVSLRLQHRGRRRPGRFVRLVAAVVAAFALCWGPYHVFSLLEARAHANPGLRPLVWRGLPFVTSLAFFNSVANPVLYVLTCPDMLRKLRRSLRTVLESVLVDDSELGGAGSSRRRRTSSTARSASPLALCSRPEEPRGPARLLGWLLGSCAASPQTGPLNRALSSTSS
Assay: Radioligand binding Scintillation Proximity Assay ([3H]PGD2, hCRTH2-CHO cell membranes)
Parameters: host or cells: CHO cells
Conditions: 1.5 nM [3H]PGD2, hCRTH2-CHO cell membranes, SPA
Method: Adherent CHO cells expressing hCRTH2 (Euroscreen, Belgium) were cultured in 225 cm^2 cell culture flasks (Corning, USA) in 30 ml of medium. After two rinses of phosphate buffered saline (PBS), cells were harvested in 10 ml of PBS containing 1 mM EDTA, centrifuged at 500×g for 5 min at 4° C. and frozen at −80° C. The pellet was re-suspended in 50 mM Tris-HCl, pH 7.4, 2 mM EDTA, 250 mM Sucrose, containing protease inhibitor cocktail tablets, (Complete EDTA-free, Roche, Germany) and incubated 30 min at 4° C. Cells were disrupted by nitrogen cavitation (Parr Instruments, USA) at 4° C. (800 p.s.i. for 30 min), and centrifuged at 500×g for 10 min at 4° C. Pellet containing nuclei and cellular debris was discarded and supernatant was centrifuged 60 min at 4° C. at 45000×g. Membrane pellet was re-suspended in storage buffer (10 mM HEPES/KOH pH 7.4, 1 mM EDTA, 250 mM sucrose, protease inhibitor cocktail tablets) using Dounce homogenization and frozen in liquid nitrogen, and stored at −80° C.
The inhibitory activity can be investigated by a radioligand binding Scintillation Proximity Assay (SPA) (Sawyer et al., Br. J. Pharmocol 2002, 137, 1163-72). The SPA radioligand binding assay was performed at room temperature in binding buffer (10 mM HEPES/KOH pH 7.4, 10 mM MnCl2, with protease inhibitor cocktail tablets), containing 1.5 nM [^3H]PGD2 (Perkin Elmer), 10-50 μg/ml of hCRTH2-CHO cell membrane protein and 2 mg/ml of Wheat-germ agglutinin Sintillation Proximity Assay beads (RPNQ0001, GE-Healthcare) in a final volume of 100 μl in 96 well plates (Corning, USA). Non-specific binding was determined in the presence of 10 μM PGD2 (Cayman, USA). Competing Compounds of Formula (I) were diluted in dimethylsulphoxide so that the total volume of dimethylsulfoxide was kept constant at 1% dimethylsulphoxide (Me2SO). Serial dilutions of 100 μM to 100 pM were prepared and 10 μl each of the compounds of Formula (I) stock solutions were added to the binding assay reagents and incubated for 90 min with agitation at room temperature. Binding activity was determined by using a 1450 Micro-beta scintillation counter (Wallac, UK).

Row | IC50 | SMILES
1 | 5 nM | Cc1ccc(S(=O)(=O)N2CCOCC2)cc1C#Cc1cc(Cl)ccc1OCC(=O)O [Example 82, (4-chloro-2-{[2-methyl-5-(morpholin-4-ylsulfonyl)phenyl]ethynyl}phenoxy)acetic acid]
2 | 123 nM | O=C(O)COc1ccc(Cl)cc1C#Cc1ccc(F)cc1F [Example 8, {4-chloro-2-[(2,4-difluorophenyl)ethynyl]phenoxy}acetic acid]
3 | 15 nM | O=C(O)COc1ccc(C(F)(F)F)cc1C#Cc1ccccc1Cl [Example 41, [2-[(2-chlorophenyl)ethynyl]-4-(trifluoromethyl)phenoxy]acetic acid]
4 | 530 nM | CCCS(=O)(=O)c1cccc(C#Cc2cc(-c3cnn(C)c3)ccc2OCC(=O)O)c1 [Example 135, (4-(1-methyl-1H-pyrazol-4-yl)-2-{[3-(propylsulfonyl)phenyl]ethynyl}phenoxy)acetic acid]
5 | 12 nM | Cc1ccc(S(=O)(=O)C(C)C)cc1C#Cc1cc(C#N)ccc1OCC(=O)O [Example 68, (4-cyano-2-{[5-(isopropylsulfonyl)-2-methylphenyl]ethynyl}phenoxy)acetic acid]
6 | 229 nM | COc1ccccc1C#Cc1cc(Cl)ccc1OCC(=O)O [Example 6, {4-chloro-2-[(2-methoxyphenyl)ethynyl]phenoxy}acetic acid]
7 | 79 nM | CCCS(=O)(=O)c1cccc(C#Cc2cc(F)ccc2OCC(=O)O)c1 [Example 99, (4-fluoro-2-{[3-(propylsulfonyl)phenyl]ethynyl}phenoxy)acetic acid]
8 | 28 nM | O=C(O)COc1ccc(Cl)cc1C#Cc1ccc(NC(=O)c2ccccc2)cc1 [Example 151, (2-{[4-(benzoylamino)phenyl]ethynyl}-4-chlorophenoxy)acetic acid]
9 | 8 nM | CS(=O)(=O)c1ccc(Cl)c(C#Cc2cc(C#N)ccc2OCC(=O)O)c1 [Example 61, (2-{[2-chloro-5-(methylsulfonyl)phenyl]ethynyl}-4-cyanophenoxy)acetic acid]
10 | 70 nM | Cc1ccc(NS(C)(=O)=O)cc1C#Cc1cc(Cl)ccc1OCC(=O)O [Example 137, [4-chloro-2-({2-methyl-5-[(methylsulfonyl)amino]phenyl}ethynyl)phenoxy]acetic acid]
11 | 6 nM | CCNS(=O)(=O)c1ccc(C)c(C#Cc2cc(Cl)ccc2OCC(=O)O)c1 [Example 16, [4-chloro-2-({5-[(ethylamino)sulfonyl]-2-methylphenyl}ethynyl)phenoxy]acetic acid]
12 | 811 nM | O=C(O)COc1ccc(Cl)cc1C#Cc1ccncc1 [Example 12, [4-chloro-2-(pyridin-4-ylethynyl)phenoxy]acetic acid]
13 | 40 nM | O=C(O)COc1ccc(Cl)cc1C#Cc1cncc(S(=O)(=O)N2CC(F)(F)C2)c1 [Example 78, [4-chloro-2-({5-[(3,3-difluoroazetidin-1-yl)sulfonyl]pyridin-3-yl}ethynyl)phenoxy]acetic acid]
14 | 171 nM | N#Cc1ccc(OCC(=O)O)c(C#Cc2cncc(S(=O)(=O)N3CC(F)(F)C3)c2)c1 [Example 76, [4-cyano-2-({5-[(3,3-difluoroazetidin-1-yl)sulfonyl]pyridin-3-yl}ethynyl)phenoxy]acetic acid]
15 | 9 nM | Cc1ccc(S(=O)(=O)CCc2ccccc2)cc1C#Cc1cc(Cl)ccc1OCC(=O)O [Example 92, [4-chloro-2-({2-methyl-5-[(2-phenylethyl)sulfonyl]phenyl}ethynyl)phenoxy]acetic acid]
16 | 24 nM | COC1c2ccc(C#Cc3cc(Cl)ccc3OCC(=O)O)cc2S(=O)(=O)C1(C)C (stereo not drawn) [Example 161, {4-chloro-2-[(3-methoxy-2,2-dimethyl-1,1-dioxido-2,3-dihydro-1-benzothien-6-yl)ethynyl]phenoxy}acetic acid]
17 | 7 nM | Cc1ccc(S(=O)(=O)N2CCCCC2)cc1C#Cc1cc(Cl)ccc1OCC(=O)O [Example 88, (4-chloro-2-{[2-methyl-5-(piperidin-1-ylsulfonyl)phenyl]ethynyl}phenoxy)acetic acid]

Row | IC50 | SMILES
18 | 30 nM | O=C(O)COc1ccc(Cl)cc1C#Cc1ccccc1C(F)(F)F [Example 9, (4-chloro-2-{[2-(trifluoromethyl)phenyl]ethynyl}phenoxy)acetic acid]
19 | 68 nM | CCCS(=O)(=O)c1cccc(C#Cc2cc(-c3sc(C)nc3C)ccc2OCC(=O)O)c1 [Example 132, (4-(2,4-dimethyl-1,3-thiazol-5-yl)-2-{[3-(propylsulfonyl)phenyl]ethynyl}phenoxy)acetic acid]
20 | 25 nM | Cc1ccc(S(N)(=O)=O)cc1C#Cc1cc(Cl)ccc1OCC(=O)O [Example 120, (2-{[5-(aminosulfonyl)-2-methylphenyl]ethynyl}-4-chlorophenoxy)acetic acid]
21 | 452 nM | Cc1ccc(S(=O)(=O)N(C)CCN(C)C)cc1C#Cc1cc(Cl)ccc1OCC(=O)O [Example 122, {4-chloro-2-[(5-{[[2-(dimethylamino)ethyl](methyl)amino]sulfonyl}-2-methylphenyl)ethynyl]phenoxy}acetic acid]
22 | 5 nM | Cc1ccc(S(=O)(=O)N(C)CC(C)C)cc1C#Cc1cc(Cl)ccc1OCC(=O)O [Example 110, {4-chloro-2-[(5-{[isobutyl(methyl)amino]sulfonyl}-2-methylphenyl)ethynyl]phenoxy}acetic acid]
23 | 287 nM | CCCS(=O)(=O)c1ccc(F)c(C#Cc2cc(Cl)ccc2OC(C)(C)C(=O)O)c1 [Example 169, 2-(4-chloro-2-{[2-fluoro-5-(propylsulfonyl)phenyl]ethynyl}phenoxy)-2-methylpropanoic acid]
24 | 154 nM | CS(=O)(=O)c1ccc(C#Cc2cc(Cl)ccc2OCC(=O)O)cc1 [Example 90, (4-chloro-2-{[4-(methylsulfonyl)phenyl]ethynyl}phenoxy)acetic acid]
25 | 8 nM | Cc1cc(F)c(S(C)(=O)=O)cc1C#Cc1cc(Cl)ccc1OCC(=O)O [Example 97, (4-chloro-2-{[4-fluoro-2-methyl-5-(methylsulfonyl)phenyl]ethynyl}phenoxy)acetic acid]
26 | 52 nM | O=C(O)COc1ccc(Cl)cc1C#Cc1cncc(S(=O)(=O)N2CCOCC2)c1 [Example 79, (4-chloro-2-{[5-(morpholin-4-ylsulfonyl)pyridin-3-yl]ethynyl}phenoxy)acetic acid]
27 | 13 nM | Cc1ccc(S(=O)(=O)Cc2ccccc2)cc1C#Cc1cc(C#N)ccc1OCC(=O)O [Example 93, (2-{[5-(benzylsulfonyl)-2-methylphenyl]ethynyl}-4-cyanophenoxy)acetic acid]
28 | 100 nM | CC(C)S(=O)(=O)c1cc(C#Cc2cc(Cl)ccc2OCC(=O)O)ccc1C(=O)N1CCOCC1 [Example 167, (4-chloro-2-{[3-(isopropylsulfonyl)-4-(morpholin-4-ylcarbonyl)phenyl]ethynyl}phenoxy)acetic acid]
29 | 5940 nM | O=C(O)COc1cc(F)ccc1C#Cc1ccccc1Cl [Example 37, {2-[(2-chlorophenyl)ethynyl]-5-fluorophenoxy}acetic acid]
30 | 340 nM | CN(c1cncc(C#Cc2cc(Cl)ccc2OCC(=O)O)c1)S(C)(=O)=O [Example 47, [4-chloro-2-({5-[methyl(methylsulfonyl)amino]pyridin-3-yl}ethynyl)phenoxy]acetic acid]
31 | 32 nM | O=C(O)COc1ccc(Cl)cc1C#Cc1ccc2c(c1)S(=O)(=O)C=C2 [Example 156, {4-chloro-2-[(1,1-dioxido-1-benzothien-6-yl)ethynyl]phenoxy}acetic acid]
32 | 50 nM | CS(=O)(=O)c1cc(C#Cc2cc(Cl)ccc2OCC(=O)O)ccc1-c1ccc(C(F)(F)F)cc1 [Example 143, (4-chloro-2-{[2-(methylsulfonyl)-4′-(trifluoromethyl)biphenyl-4-yl]ethynyl}phenoxy)acetic acid]
33 | 8 nM | CCCN(CCC)S(=O)(=O)c1ccc(C)c(C#Cc2cc(Cl)ccc2OCC(=O)O)c1 [Example 116, [4-chloro-2-({5-[(dipropylamino)sulfonyl]-2-methylphenyl}ethynyl)phenoxy]acetic acid]
